Starred links: 1 amine or outer side, 2 acyl side, 3 side chain; linkers in the order of their positions; H or OH if unused. Positions of bridges follow the written chain, without caps; N, C: chain ends. Residues, ends and D or L forms follow the SMILES beside them. Groups on a side chain read outwards from the residue. *: point of attachment. C20 diacid = O=C(O)CCCCCCCCCCCCCCCCCCC(=O)*; C18 diacid = O=C(O)CCCCCCCCCCCCCCCCC(=O)*; γGlu = O=C(O)[C@H](CCC(=O)[*:2])N[*:1]; AEEA = NCCOCCOCC(=O)O
Tests used:
[1] = system: ad libitum fed rat; assay: Assay (I) efficacy testing on appetite (food intake) using an ad libitum fed rat model; format: in vivo, Sprague Dawley (SD) rats
Outline: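 Ad libitum fed Sprague Dawley rats, 200-250 g, singly housed on reversed light cycle, got one ip, po or sc dose of 0.01-3 mg/kg just before lights off; groups of 5-8 with vehicle control. Food intake recorded hourly for 7 h, then at 24 h and sometimes 48 h; Grubbs outliers excluded.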

[2] = Assay (III) ThT fibrillation assay for physical stability; format: physicochemical; conditions: for ThT pH 4.0 lag time: pH 4.0, ThT fibrillation assay
Outline: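 Freshly prepared, pH-adjusted formulations with 1 μM ThT incubated at 37 °C under 960 rpm orbital shaking (1 mm), fluorescence (ex 444, em 485 nm) read every 20 min. […] Peptide content before and after measured by reverse-phase HPLC against pramlintide standard.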

| ThT pH 4.0 lag time [2] | ThT pH 4.0 lag time (physical stability in fibrillogenesis assay) ([2]; pH 4.0) | SMILES | Food intake reduction 0-24 h 3 nmol/kg (%) ([1]; 0-24 h) | Food intake reduction 24-48 h 3 nmol/kg (%) ([1]; 24-48 h) | Food intake reduction 0-24 h 30 nmol/kg (%) ([1]; 30 nmol/kg, 0-24 h) | Food intake reduction 24-48 h 30 nmol/kg (%) ([1]; 30 nmol/kg, 24-48 h) |
| --- | --- | --- | --- | --- | --- | --- |
| >45 h | – | CC[C@H](C)[C@H](NC(=O)[C@@H]1CCCN1C(=O)CNC(=O)[C@H](Cc1ccccc1)NC(=O)[C@H](CC(N)=O)NC(=O)[C@H](CC(N)=O)NC(=O)[C@H](CO)NC(=O)[C@H](CO)NC(=O)[C@H](Cc1c[nH]cn1)NC(=O)[C@H](CCCNC(=N)N)NC(=O)[C@H](CC(C)C)NC(=O)[C@H](Cc1ccccc1)NC(=O)[C@H](CCC(=O)O)NC(=O)[C@H](C)NC(=O)[C@H](CC(C)C)NC(=O)[C@H](CCCNC(=N)N)NC(=O)[C@H](CCC(N)=O)NC(=O)[C@@H](NC(=O)[C@H](C)NC(=O)[C@@H]1CSSC[C@H](NC(=O)[C@H](CCCCN)NC(=O)CC[C@H](NC(=O)CCCCCCCCCCCCCCCCCCC(=O)O)C(=O)O)C(=O)N[C@@H](CC(N)=O)C(=O)N[C@@H]([C@@H](C)O)C(=O)N[C@@H](C)C(=O)N[C@@H]([C@@H](C)O)C(=O)N1)[C@@H](C)O)C(=O)N[C@@H](CC(C)C)C(=O)N1CCC[C@H]1C(=O)N1CCC[C@H]1C(=O)N[C@H](C(=O)N[C@@H](CC(N)=O)C(=O)N[C@H](C(=O)NCC(=O)N[C@@H](CO)C(=O)N[C@@H](Cc1c[nH]cn1)C(=O)N[C@H](C(=O)N[C@@H](Cc1ccc(O)cc1)C(N)=O)[C@@H](C)O)C(C)C)[C@@H](C)O [Example 57, N-alpha-[(S)-4-Carboxy-4-(19-carboxynonadecanoylamino)butyryl]-[Glu14,Arg17,His35]-pramlintide] ({C20 diacid-γGlu}-KCNTATCATQRLAEFLRHSSNNFGPILPPTNVGSHTY-NH2; disulfide 2-7 (inferred)) | 17% | 0% | – | – |
| >45 h | >45 h | CC[C@H](C)[C@H](NC(=O)[C@@H]1CCCN1C(=O)CNC(=O)[C@H](Cc1ccccc1)NC(=O)[C@H](CC(N)=O)NC(=O)[C@H](CC(N)=O)NC(=O)[C@H](CO)NC(=O)[C@H](CO)NC(=O)[C@H](Cc1c[nH]cn1)NC(=O)[C@H](Cc1c[nH]cn1)NC(=O)[C@H](CC(C)C)NC(=O)[C@H](Cc1ccccc1)NC(=O)[C@H](CCC(=O)O)NC(=O)[C@H](C)NC(=O)[C@H](CC(C)C)NC(=O)[C@H](CCCNC(=N)N)NC(=O)[C@H](CCC(N)=O)NC(=O)[C@@H](NC(=O)[C@H](C)NC(=O)[C@@H]1CSSC[C@H](NC(=O)[C@H](CCCCN)NC(=O)CC[C@H](NC(=O)CCCCCCCCCCCCCCCCC(=O)O)C(=O)O)C(=O)N[C@@H](CC(N)=O)C(=O)N[C@@H]([C@@H](C)O)C(=O)N[C@@H](C)C(=O)N[C@@H]([C@@H](C)O)C(=O)N1)[C@@H](C)O)C(=O)N[C@@H](CC(C)C)C(=O)N1CCC[C@H]1C(=O)N1CCC[C@H]1C(=O)N[C@H](C(=O)N[C@@H](CC(N)=O)C(=O)N[C@H](C(=O)NCC(=O)N[C@@H](CO)C(=O)N[C@@H](Cc1c[nH]cn1)C(=O)N[C@H](C(=O)N[C@@H](Cc1ccc(O)cc1)C(N)=O)[C@@H](C)O)C(C)C)[C@@H](C)O [Example 59, N-alpha-[(S)-4-Carboxy-4-(17-carboxyheptadecanoylamino)butyryl]-[Glu14,His17,His35]-pramlintide] ({C18 diacid-γGlu}-KCNTATCATQRLAEFLHHSSNNFGPILPPTNVGSHTY-NH2; disulfide 2-7) | 59% | 27% | – | – |
| >45 h | – | CC[C@H](C)[C@H](NC(=O)[C@@H]1CCCN1C(=O)CNC(=O)[C@H](Cc1ccccc1)NC(=O)[C@H](CC(N)=O)NC(=O)[C@H](CC(N)=O)NC(=O)[C@H](CO)NC(=O)[C@H](CO)NC(=O)[C@H](Cc1c[nH]cn1)NC(=O)[C@H](CCCNC(=N)N)NC(=O)[C@H](CC(C)C)NC(=O)[C@H](Cc1ccccc1)NC(=O)[C@H](CCC(=O)O)NC(=O)[C@H](C)NC(=O)[C@H](CC(C)C)NC(=O)[C@H](CCCNC(=N)N)NC(=O)[C@H](CCC(N)=O)NC(=O)[C@@H](NC(=O)[C@H](C)NC(=O)[C@@H]1CSSC[C@H](NC(=O)[C@H](CCCCN)NC(=O)[C@H](Cc2c[nH]cn2)NC(=O)CC[C@H](NC(=O)CCCCCCCCCCCCCCCCC(=O)O)C(=O)O)C(=O)N[C@@H](CC(N)=O)C(=O)N[C@@H]([C@@H](C)O)C(=O)N[C@@H](C)C(=O)N[C@@H]([C@@H](C)O)C(=O)N1)[C@@H](C)O)C(=O)N[C@@H](CC(C)C)C(=O)N1CCC[C@H]1C(=O)N1CCC[C@H]1C(=O)N[C@H](C(=O)N[C@@H](CC(N)=O)C(=O)N[C@H](C(=O)NCC(=O)N[C@@H](CO)C(=O)N[C@@H](Cc1c[nH]cn1)C(=O)N[C@H](C(=O)N[C@@H](Cc1ccc(O)cc1)C(N)=O)[C@@H](C)O)C(C)C)[C@@H](C)O [Example 71, N-alpha-[(S)-4-Carboxy-4-(17-carboxyheptadecanoylamino)butyryl]-His-[Glu14,Arg17,His35]-pramlintide] ({C18 diacid-γGlu}-HKCNTATCATQRLAEFLRHSSNNFGPILPPTNVGSHTY-NH2; disulfide 3-8 (inferred)) | 10% | 0% | – | – |
| 25 h | – | CC[C@H](C)[C@H](NC(=O)[C@@H]1CCCN1C(=O)CNC(=O)[C@H](Cc1ccccc1)NC(=O)[C@H](CC(N)=O)NC(=O)[C@H](CC(N)=O)NC(=O)[C@H](CO)NC(=O)[C@H](CO)NC(=O)[C@H](Cc1c[nH]cn1)NC(=O)[C@H](Cc1c[nH]cn1)NC(=O)[C@H](CC(C)C)NC(=O)[C@H](Cc1ccccc1)NC(=O)[C@H](CCC(=O)O)NC(=O)[C@H](C)NC(=O)[C@H](CC(C)C)NC(=O)[C@H](CCCNC(=N)N)NC(=O)[C@H](CCC(N)=O)NC(=O)[C@@H](NC(=O)[C@H](C)NC(=O)[C@@H]1CSSC[C@H](NC(=O)[C@@H](N)CCCCNC(=O)CC[C@H](NC(=O)CCCCCCCCCCCCCCCCCCC(=O)O)C(=O)O)C(=O)N[C@@H](CC(N)=O)C(=O)N[C@@H]([C@@H](C)O)C(=O)N[C@@H](C)C(=O)N[C@@H]([C@@H](C)O)C(=O)N1)[C@@H](C)O)C(=O)N[C@@H](CC(C)C)C(=O)N1CCC[C@H]1C(=O)N1CCC[C@H]1C(=O)N[C@H](C(=O)N[C@@H](CC(N)=O)C(=O)N[C@H](C(=O)NCC(=O)N[C@@H](CO)C(=O)N[C@@H](Cc1c[nH]cn1)C(=O)N[C@H](C(=O)N[C@@H](Cc1ccc(O)cc1)C(N)=O)[C@@H](C)O)C(C)C)[C@@H](C)O [Example 87, N-epsilon1-[(S)-4-Carboxy-4-(19-carboxynonadecanoylamino)butyryl]-[Glu14,His17,His35]-pramlintide] (H-K([γGlu-C20 diacid])CNTATCATQRLAEFLHHSSNNFGPILPPTNVGSHTY-NH2; disulfide 2-7 (inferred); C-terminus assumed) | 66% | 47% | – | – |

The remaining lines, values behind:

| SMILES | ThT pH 4.0 lag time [2] | ThT pH 4.0 lag time (physical stability in fibrillogenesis assay) ([2]; pH 4.0) | Food intake reduction 0-24 h 3 nmol/kg (%) ([1]; 0-24 h) | Food intake reduction 24-48 h 3 nmol/kg (%) ([1]; 24-48 h) | Food intake reduction 0-24 h 30 nmol/kg (%) ([1]; 30 nmol/kg, 0-24 h) | Food intake reduction 24-48 h 30 nmol/kg (%) ([1]; 30 nmol/kg, 24-48 h) |
| --- | --- | --- | --- | --- | --- | --- |
| CC[C@H](C)[C@H](NC(=O)[C@@H]1CCCN1C(=O)CNC(=O)[C@H](Cc1ccccc1)NC(=O)[C@H](CC(N)=O)NC(=O)[C@H](CC(N)=O)NC(=O)[C@H](CO)NC(=O)[C@H](CO)NC(=O)[C@H](Cc1c[nH]cn1)NC(=O)[C@H](Cc1c[nH]cn1)NC(=O)[C@H](CC(C)C)NC(=O)[C@H](Cc1ccccc1)NC(=O)[C@H](CCC(=O)O)NC(=O)[C@H](C)NC(=O)[C@H](CC(C)C)NC(=O)[C@H](CCCNC(=N)N)NC(=O)[C@H](CCC(N)=O)NC(=O)[C@@H](NC(=O)[C@H](C)NC(=O)[C@@H]1CSSC[C@H](NC(=O)[C@H](CCCCN)NC(=O)CC[C@H](NC(=O)CCCCCCCCCCCCCCCCCCC(=O)O)C(=O)O)C(=O)N[C@@H](CC(N)=O)C(=O)N[C@@H]([C@@H](C)O)C(=O)N[C@@H](C)C(=O)N[C@@H]([C@@H](C)O)C(=O)N1)[C@@H](C)O)C(=O)N[C@@H](CC(C)C)C(=O)N1CCC[C@H]1C(=O)N1CCC[C@H]1C(=O)N[C@H](C(=O)N[C@@H](CC(N)=O)C(=O)N[C@H](C(=O)NCC(=O)N[C@@H](CO)C(=O)N[C@@H](Cc1c[nH]cn1)C(=O)N[C@H](C(=O)N[C@@H](Cc1ccc(O)cc1)C(N)=O)[C@@H](C)O)C(C)C)[C@@H](C)O [Example 55, N-alpha-[(S)-4-Carboxy-4-(19-carboxynonadecanoylamino)butyryl]-[Glu14,His17,His35]-pramlintide] ({C20 diacid-γGlu}-KCNTATCATQRLAEFLHHSSNNFGPILPPTNVGSHTY-NH2; disulfide 2-7 (inferred)) | 37 h | – | 58% | 40% | 88% | 90% |
| CC[C@H](C)[C@H](NC(=O)[C@H](CCCCNC(=O)COCCOCCNC(=O)COCCOCCNC(=O)CC[C@H](NC(=O)CCCCCCCCCCCCCCCCC(=O)O)C(=O)O)NC(=O)CNC(=O)[C@H](Cc1ccccc1)NC(=O)[C@H](CC(N)=O)NC(=O)[C@H](CC(N)=O)NC(=O)[C@H](CO)NC(=O)[C@H](CO)NC(=O)[C@H](Cc1c[nH]cn1)NC(=O)[C@H](Cc1c[nH]cn1)NC(=O)[C@H](CC(C)C)NC(=O)[C@H](Cc1ccccc1)NC(=O)[C@H](CCC(=O)O)NC(=O)[C@H](C)NC(=O)[C@H](CC(C)C)NC(=O)[C@H](CCCNC(=N)N)NC(=O)[C@H](CCC(N)=O)NC(=O)[C@@H](NC(=O)[C@H](C)NC(=O)[C@@H]1CSSC[C@H](NC(=O)[C@@H](N)CCCCN)C(=O)N[C@@H](CC(N)=O)C(=O)N[C@@H]([C@@H](C)O)C(=O)N[C@@H](C)C(=O)N[C@@H]([C@@H](C)O)C(=O)N1)[C@@H](C)O)C(=O)N[C@@H](CC(C)C)C(=O)N1CCC[C@H]1C(=O)N1CCC[C@H]1C(=O)N[C@H](C(=O)N[C@@H](CC(N)=O)C(=O)N[C@H](C(=O)NCC(=O)N[C@@H](CO)C(=O)N[C@@H](CC(N)=O)C(=O)N[C@H](C(=O)N[C@@H](Cc1ccc(O)cc1)C(N)=O)[C@@H](C)O)C(C)C)[C@@H](C)O [Example 73, N-epsilon25-[2-(2-{2-[2-(2-{2-[(S)-4-Carboxy-4-(17-carboxyheptadecanoylamino)butyrylamino]ethoxy}ethoxy)acetylamino]ethoxy}ethoxy)acetyl]-[Glu14,His17,Lys25]-pramlintide] (H-KCNTATCATQRLAEFLHHSSNNFGK([AEEA-AEEA-γGlu-C18 diacid])ILPPTNVGSNTY-NH2; disulfide 2-7; N-terminus assumed) | >45 h | – | 29% | 2% | – | – |

From patent publication US8741836B2, “Polypeptides” (Novo Nordisk A/S, priority 2011, dated 2014)
